Data on 12 molecules can be found in patent US12606568B2, “SMARCA degraders and uses thereof” (Kymera Therapeutics, Inc., priority 2020, dated 2026).

A word on the Dmax: it is the greatest extent of degradation seen. For orientation: DC50 means the concentration giving 50% degradation.

Format in all cases: cell-based
In experiment [1] the target is T1, SMARCA2 (Homo sapiens, UniProt P51531). The experiment is described as follows: MSD SMARCA2 degradation in A549 cell line. Conditions: for Dmax: A549, A549 cells; for Dmax / DC50: 24 h; for DC50: read-out: SMARCA2 MSD A549 degradation 24 h: Average external-Abs DC50. Further details: endogenous in cells. The essentials:
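A549 cells treated 24 h with compound, 3-fold series 1000 nM down to 0.152 nM plus DMSO. RIPA lysates captured on MSD plates, probed with rabbit anti-SMARCA2/BRM (1 µg/ml) then SULFO-TAG anti-rabbit, electrochemiluminescence read. DC50 and 24 h Dmax reported as letter bins.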

The next experiment concerns the target T2, SMARCA4 (Homo sapiens, UniProt P51532).
T2 construct: SMARCA2 and SMARCA4 protein degradation in MV4-11 cells; endogenous in cells; host or cells: MV4-11
The experiment is described as follows: SMARCA4 Western blot MV4-11 degradation. As to conditions: for Dmax: MV4-11, MV4-11 cells, read-out: SMARCA4 MSD MV411 degradation 24 h: average Dmax %; for Dmax / DC50: 24 h; for DC50: read-out: SMARCA4 MSD MV411 degradation 24 h: Mean external-Abs DC50.

Experiment [2] addresses T1, SMARCA2. Briefly: SMARCA2 Western blot MV4-11 degradation. The arrangement: SMARCA2 and SMARCA4 protein degradation in MV4-11 cells; endogenous in cells; host or cells: MV4-11. Conditions: for Dmax: MV4-11, MV4-11 cells, read-out: SMARCA2 MSD MV411 degradation 24 h: average Dmax %; for Dmax / DC50: 24 h; for DC50: read-out: SMARCA2 MSD MV411 degradation 24 h: Mean external-Abs DC50.

T2 sequence (P51532 whole entry): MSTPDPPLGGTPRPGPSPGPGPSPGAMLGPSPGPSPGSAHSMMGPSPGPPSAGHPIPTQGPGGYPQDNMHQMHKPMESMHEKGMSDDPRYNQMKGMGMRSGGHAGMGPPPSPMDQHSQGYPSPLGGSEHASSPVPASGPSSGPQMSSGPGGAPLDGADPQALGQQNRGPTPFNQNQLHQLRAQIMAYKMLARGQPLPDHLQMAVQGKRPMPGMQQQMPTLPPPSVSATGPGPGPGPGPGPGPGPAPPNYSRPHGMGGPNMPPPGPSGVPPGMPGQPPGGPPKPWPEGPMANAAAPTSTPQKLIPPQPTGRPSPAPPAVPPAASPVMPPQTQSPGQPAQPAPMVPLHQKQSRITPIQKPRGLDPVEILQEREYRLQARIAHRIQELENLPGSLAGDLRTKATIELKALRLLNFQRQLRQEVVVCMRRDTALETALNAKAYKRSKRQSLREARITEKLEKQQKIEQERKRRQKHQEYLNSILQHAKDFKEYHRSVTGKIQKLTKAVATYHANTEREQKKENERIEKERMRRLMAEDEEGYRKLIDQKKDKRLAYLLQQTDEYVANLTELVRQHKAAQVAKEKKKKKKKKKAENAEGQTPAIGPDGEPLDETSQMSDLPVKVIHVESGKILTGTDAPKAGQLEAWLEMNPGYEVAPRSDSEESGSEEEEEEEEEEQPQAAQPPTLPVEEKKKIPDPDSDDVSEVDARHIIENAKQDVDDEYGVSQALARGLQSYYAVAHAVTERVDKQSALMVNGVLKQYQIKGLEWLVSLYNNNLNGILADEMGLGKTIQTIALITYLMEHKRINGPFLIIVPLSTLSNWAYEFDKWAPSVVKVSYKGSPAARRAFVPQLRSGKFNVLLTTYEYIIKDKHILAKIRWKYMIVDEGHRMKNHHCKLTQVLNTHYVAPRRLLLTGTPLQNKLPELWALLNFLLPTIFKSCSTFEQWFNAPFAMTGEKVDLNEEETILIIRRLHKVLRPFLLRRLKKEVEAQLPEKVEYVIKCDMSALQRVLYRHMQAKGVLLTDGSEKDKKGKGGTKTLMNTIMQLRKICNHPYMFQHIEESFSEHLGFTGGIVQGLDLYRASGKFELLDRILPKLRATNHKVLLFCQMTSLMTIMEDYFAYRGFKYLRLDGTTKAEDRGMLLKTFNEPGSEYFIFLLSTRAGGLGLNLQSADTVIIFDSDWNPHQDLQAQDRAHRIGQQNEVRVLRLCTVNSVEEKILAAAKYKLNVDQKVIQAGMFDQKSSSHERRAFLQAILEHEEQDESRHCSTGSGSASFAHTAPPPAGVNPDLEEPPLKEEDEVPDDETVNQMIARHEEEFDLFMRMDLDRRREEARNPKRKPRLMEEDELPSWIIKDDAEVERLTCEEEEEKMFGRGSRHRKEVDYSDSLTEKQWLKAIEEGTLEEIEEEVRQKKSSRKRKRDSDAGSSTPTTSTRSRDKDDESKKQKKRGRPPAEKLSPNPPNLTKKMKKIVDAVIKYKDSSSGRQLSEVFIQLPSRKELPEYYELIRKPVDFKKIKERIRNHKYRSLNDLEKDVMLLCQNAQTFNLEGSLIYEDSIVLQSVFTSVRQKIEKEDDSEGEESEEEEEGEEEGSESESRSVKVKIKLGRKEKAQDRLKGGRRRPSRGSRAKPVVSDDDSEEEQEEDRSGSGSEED
T1 sequence (P51531 whole entry): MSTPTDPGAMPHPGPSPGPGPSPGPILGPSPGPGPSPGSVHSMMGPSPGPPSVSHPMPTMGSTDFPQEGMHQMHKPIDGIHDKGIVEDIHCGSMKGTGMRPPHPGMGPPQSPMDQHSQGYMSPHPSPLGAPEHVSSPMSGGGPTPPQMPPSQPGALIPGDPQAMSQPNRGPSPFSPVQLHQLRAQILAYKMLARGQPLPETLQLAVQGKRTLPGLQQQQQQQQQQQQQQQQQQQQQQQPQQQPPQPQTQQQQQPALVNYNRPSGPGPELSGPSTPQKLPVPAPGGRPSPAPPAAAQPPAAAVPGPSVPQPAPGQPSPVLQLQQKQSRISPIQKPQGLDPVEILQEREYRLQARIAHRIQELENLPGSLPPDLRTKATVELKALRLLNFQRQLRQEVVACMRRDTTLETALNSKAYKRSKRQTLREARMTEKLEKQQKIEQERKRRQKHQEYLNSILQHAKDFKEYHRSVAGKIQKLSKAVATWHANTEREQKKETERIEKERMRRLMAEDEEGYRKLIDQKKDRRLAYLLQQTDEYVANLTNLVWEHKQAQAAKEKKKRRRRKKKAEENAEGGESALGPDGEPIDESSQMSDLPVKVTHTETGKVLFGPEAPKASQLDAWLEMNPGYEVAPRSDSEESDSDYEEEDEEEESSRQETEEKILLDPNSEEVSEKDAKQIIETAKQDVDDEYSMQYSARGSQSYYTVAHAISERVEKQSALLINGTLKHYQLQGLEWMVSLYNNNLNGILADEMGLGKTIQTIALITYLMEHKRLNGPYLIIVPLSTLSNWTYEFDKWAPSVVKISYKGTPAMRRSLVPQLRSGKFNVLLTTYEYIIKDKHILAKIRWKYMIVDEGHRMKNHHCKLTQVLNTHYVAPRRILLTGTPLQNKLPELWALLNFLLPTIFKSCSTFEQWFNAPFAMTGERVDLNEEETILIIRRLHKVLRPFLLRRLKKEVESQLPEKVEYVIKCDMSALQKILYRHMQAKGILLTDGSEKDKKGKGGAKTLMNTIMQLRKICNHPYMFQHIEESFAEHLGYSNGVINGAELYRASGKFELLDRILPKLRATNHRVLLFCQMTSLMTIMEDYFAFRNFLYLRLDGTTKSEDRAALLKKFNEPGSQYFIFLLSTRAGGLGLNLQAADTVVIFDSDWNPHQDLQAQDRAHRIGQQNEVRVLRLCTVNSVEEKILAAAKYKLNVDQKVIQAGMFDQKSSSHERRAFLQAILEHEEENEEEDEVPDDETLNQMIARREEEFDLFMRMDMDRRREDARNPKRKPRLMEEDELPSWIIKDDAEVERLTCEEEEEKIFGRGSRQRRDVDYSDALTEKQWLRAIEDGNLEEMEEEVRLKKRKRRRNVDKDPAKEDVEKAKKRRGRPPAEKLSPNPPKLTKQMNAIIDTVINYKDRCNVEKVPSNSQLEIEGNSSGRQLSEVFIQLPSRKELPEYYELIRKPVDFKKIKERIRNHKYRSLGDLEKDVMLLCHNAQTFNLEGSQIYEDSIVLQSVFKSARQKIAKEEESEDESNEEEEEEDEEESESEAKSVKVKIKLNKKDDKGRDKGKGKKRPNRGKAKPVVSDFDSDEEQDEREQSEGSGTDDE

Take `Cc1ncsc1-c1ccc(CNC(=O)[C@@H]2C[C@@H](O)CN2C(=O)[C@@H](NC(=O)N2CC3(CC(N4CCC(c5cnc(N6C7CCC6CN(c6cc(-c8ccccc8O)nnc6N)C7)nc5)CC4)C3)C2)C(C)(C)C)cc1` [I-58, 6-(4-(2-(3-(3-amino-6-(2-hydroxyphenyl)pyridazin-4-yl)-3,8-diazabicyclo[3.2.1]octan-8-yl)pyrimidin-5-yl)piperidin-1-yl)-N—((S)-1-((2S,4R)-4-hydroxy-2-((4-(4-methylthiazol-5-yl)benzyl)carbamoyl)pyrrolidin-1-yl)-3,3-dimethyl-1-oxobutan-2-yl)-2-azaspiro[3.3]heptane-2-carboxamide]: the Dmax on SMARCA2 [1] is more than 90%; on SMARCA4, 50 to 70%; at SMARCA2 [2] it was more than 90%. In addition, the DC50 was less than 100 nM on SMARCA2 [1] (A549 cells), 100 to 500 nM on SMARCA4 (MV4-11 cells) and less than 100 nM on SMARCA2 [2] (MV4-11 cells).

Consider `Cc1ncsc1-c1ccc(CNC(=O)[C@@H]2C[C@@H](O)CN2C(=O)[C@@H](NC(=O)CN2CC3(C2)CN(C2CCC(c4cnc(N5C6CCC5CN(c5cc(-c7ccccc7O)nnc5N)C6)nc4)CC2)C3)C(C)(C)C)cc1` (stereo partly drawn) [I-76, (2S,4R)-1-((2S)-2-(2-(6-(4-(2-(3-(3-amino-6-(2-hydroxyphenyl)pyridazin-4-yl)-3,8-diazabicyclo[3.2.1]octan-8-yl)pyrimidin-5-yl)cyclohexyl)-2,6-diazaspiro[3.3]heptan-2-yl)acetamido)-3,3-dimethylbutanoyl)-4-hydroxy-N-(4-(4-methylthiazol-5-yl)benzyl)pyrrolidine-2-carboxamide], for which the Dmax on SMARCA2 [1], at SMARCA4 and at SMARCA2 [2] was more than 90% throughout. Further, the DC50 was 501 to 1000 nM at SMARCA2 [1] (A549 cells), less than 100 nM at SMARCA4 (MV4-11 cells) and less than 100 nM at SMARCA2 [2] (MV4-11 cells).

Turning to `Cc1ncsc1-c1ccc(CNC(=O)[C@@H]2C[C@@H](O)CN2C(=O)[C@@H](NC(=O)C2CC3(C2)CN(C2CCC(c4cnc(N5C6CCC5CN(c5cc(-c7ccccc7O)nnc5N)C6)nc4)CC2)C3)C(C)(C)C)cc1` (stereo partly drawn) [I-7, 2-(4-(2-(3-(3-amino-6-(2-hydroxyphenyl)pyridazin-4-yl)-3,8-diazabicyclo[3.2.1]octan-8-yl)pyrimidin-5-yl)cyclohexyl)-N—((S)-1-((2S,4R)-4-hydroxy-2-((4-(4-methylthiazol-5-yl)benzyl)carbamoyl)pyrrolidin-1-yl)-3,3-dimethyl-1-oxobutan-2-yl)-2-azaspiro[3.3]heptane-6-carboxamide], the Dmax at SMARCA2 [1] is 70 to 90%; at SMARCA4, less than 50%; at SMARCA2 [2], 70 to 90%. Moreover, the DC50 at SMARCA2 [1] (A549 cells) is 501 to 1000 nM; at SMARCA4 (MV4-11 cells), more than 1000 nM; at SMARCA2 [2] (MV4-11 cells), less than 100 nM.

As for `Cc1ncsc1-c1ccc(CNC(=O)[C@@H]2C[C@@H](O)CN2C(=O)[C@@H](NC(=O)N2CCC(N3CCC(c4cnc(N5C6CCC5CN(c5cc(-c7ccccc7O)nnc5N)C6)nc4)CC3)CC2)C(C)(C)C)cc1` [I-59, 4-(2-(3-(3-amino-6-(2-hydroxyphenyl)pyridazin-4-yl)-3,8-diazabicyclo[3.2.1]octan-8-yl)pyrimidin-5-yl)-N—((S)-1-((2S,4R)-4-hydroxy-2-((4-(4-methylthiazol-5-yl)benzyl)carbamoyl)pyrrolidin-1-yl)-3,3-dimethyl-1-oxobutan-2-yl)-[1,4′-bipiperidine]-1′-carboxamide], the Dmax on SMARCA2 [1], at SMARCA4 and at SMARCA2 [2] was less than 50% in each case. In addition, the DC50 at SMARCA2 [1] (A549 cells) is more than 1000 nM; at SMARCA4 (MV4-11 cells), more than 1000 nM; on SMARCA2 [2] (MV4-11 cells) it was 501 to 1000 nM.

As to `Cc1ncsc1-c1ccc(CNC(=O)[C@@H]2C[C@@H](O)CN2C(=O)[C@@H](NC(=O)[C@H]2CC3(CC[C@H](N4CCC(c5cnc(N6C7CCC6CN(c6cc(-c8ccccc8O)nnc6N)C7)nc5)CC4)CC3)C2)C(C)(C)C)cc1` (stereo partly drawn) [I-13], the Dmax was more than 90% on SMARCA2 [1], 70 to 90% at SMARCA4 and 70 to 90% on SMARCA2 [2]. Besides, the DC50 is less than 100 nM at SMARCA2 [1] (A549 cells), more than 1000 nM at SMARCA4 (MV4-11 cells) and less than 100 nM on SMARCA2 [2] (MV4-11 cells).

For the molecule `Cc1ncsc1-c1ccc(CNC(=O)[C@@H]2C[C@@H](O)CN2C(=O)C(c2cc(N3CCC(N4CCC(c5cnc(N6C7CCC6CN(c6cc(-c8ccccc8O)nnc6N)C7)nc5)CC4)CC3)no2)C(C)C)cc1` (mixture of isomers) [I-47, (2S,4R)-1-(2-(3-(4-(2-(3-(3-amino-6-(2-hydroxyphenyl)pyridazin-4-yl)-3,8-diazabicyclo[3.2.1]octan-8-yl)pyrimidin-5-yl)-[1,4′-bipiperidin]-1′-yl)isoxazol-5-yl)-3-methylbutanoyl)-4-hydroxy-N-(4-(4-methylthiazol-5-yl)benzyl)pyrrolidine-2-carboxamide], the Dmax on SMARCA2 [1], on SMARCA4 and at SMARCA2 [2] was more than 90% throughout. The DC50 on SMARCA2 [1] (A549 cells), at SMARCA4 (MV4-11 cells) and at SMARCA2 [2] (MV4-11 cells) was less than 100 nM throughout.

As to `Cc1ncsc1-c1ccc(CNC(=O)[C@@H]2C[C@@H](O)CN2C(=O)C(c2cc(OCCN3CCC(c4cnc(N5C6CCC5CN(c5cc(-c7ccccc7O)nnc5N)C6)nc4)CC3)no2)C(C)C)cc1` (stereo partly drawn) [I-50, (2S,4R)-1-(2-(3-(2-(4-(2-(3-(3-amino-6-(2-hydroxyphenyl)pyridazin-4-yl)-3,8-diazabicyclo[3.2.1]octan-8-yl)pyrimidin-5-yl)piperidin-1-yl)ethoxy)isoxazol-5-yl)-3-methylbutanoyl)-4-hydroxy-N-(4-(4-methylthiazol-5-yl)benzyl)pyrrolidine-2-carboxamide], the Dmax at SMARCA2 [1], at SMARCA4 and at SMARCA2 [2] was more than 90% each time. Besides, the DC50 at SMARCA2 [1] (A549 cells), at SMARCA4 (MV4-11 cells) and on SMARCA2 [2] (MV4-11 cells) was less than 100 nM in each case.

With `Cc1ncsc1-c1ccc(CNC(=O)[C@@H]2C[C@@H](O)CN2C(=O)[C@@H](NC(=O)[C@H]2CC3(C2)C[C@H](N2CCN(c4cnc(N5C6CCC5CN(c5cc(-c7ccccc7O)nnc5N)C6)nc4)CC2)C3)C(C)(C)C)cc1` (single isomer, unassigned) [I-8], the Dmax on SMARCA2 [1] is 70 to 90%; at SMARCA4, less than 50%; at SMARCA2 [2], 70 to 90%. Further, the DC50 at SMARCA2 [1] (A549 cells) was less than 100 nM; on SMARCA4 (MV4-11 cells), more than 1000 nM; at SMARCA2 [2] (MV4-11 cells) it was less than 100 nM.

Take `Cc1ncsc1-c1ccc(CNC(=O)[C@@H]2C[C@@H](O)CN2C(=O)[C@@H](NC(=O)[C@H]2CCC3(CC2)C[C@H](N2CCC(c4cnc(N5C6CCC5CN(c5cc(-c7ccccc7O)nnc5N)C6)nc4)CC2)C3)C(C)(C)C)cc1` (stereo partly drawn) [I-43, (2S,4R)-1-((2S)-2-(2-(4-(2-(3-(3-amino-6-(2-hydroxyphenyl)pyridazin-4-yl)-3,8-diazabicyclo[3.2.1]octan-8-yl)pyrimidin-5-yl)piperidin-1-yl)spiro[3.5]nonane-7-carboxamido)-3,3-dimethylbutanoyl)-4-hydroxy-N-(4-(4-methylthiazol-5-yl)benzyl)-pyrrolidine-2-carboxamide]: the DC50 at SMARCA2 [1] (A549 cells) is 100 to 500 nM; on SMARCA4 (MV4-11 cells), more than 1000 nM; at SMARCA2 [2] (MV4-11 cells) it was less than 100 nM.

As to `Cc1ncsc1-c1cnc(CNC(=O)[C@@H]2C[C@@H](O)CN2C(=O)[C@@H](NC(=O)[C@H]2CC3(C2)C[C@H](N2CCC(c4ccc(N5C6CCC5CN(c5cc(-c7ccccc7O)nnc5N)C6)cc4)CC2)C3)C(C)(C)C)cn1` (stereo partly drawn) [I-29, (2S,4R)-1-((2S)-2-(6-(4-(4-(3-(3-amino-6-(2-hydroxyphenyl)pyridazin-4-yl)-3,8-diazabicyclo[3.2.1]octan-8-yl)phenyl)piperidin-1-yl)spiro[3.3]heptane-2-carboxamido)-3,3-dimethylbutanoyl)-4-hydroxy-N-((5-(4-methylthiazol-5-yl)pyrazin-2-yl)methyl)pyrrolidine-2-carboxamide], the greatest degradation seen (Dmax) at SMARCA2 [1] was less than 50%; at SMARCA4, 50 to 70%; at SMARCA2 [2] it was less than 50%. Moreover, the DC50 at SMARCA2 [1] (A549 cells), at SMARCA4 (MV4-11 cells) and at SMARCA2 [2] (MV4-11 cells) was more than 1000 nM throughout.

Regarding `Cc1ncsc1-c1ccc(CNC(=O)[C@@H]2C[C@@H](O)CN2C(=O)[C@@H](NC(=O)[C@H]2CC3(C2)C[C@H](N2CCC(Oc4ccc(N5C6CCC5CN(c5cc(-c7ccccc7O)nnc5N)C6)cn4)CC2)C3)C(C)(C)C)cc1` (stereo partly drawn) [I-40], on SMARCA2 [1] (A549 cells), the “SMARCA2 MSD A549 degradation 24 h: Average Dmax %” value is on record as “B (B (>70-90% o degradation))” and the DC50 was more than 1000 nM. Further, on SMARCA4 (MV4-11 cells), the “SMARCA4 MSD MV411 degradation 24 h: average Dmax %” value is reported as “A (A (>90% degradation))” and the 50% degradation concentration (DC50) was more than 1000 nM. Moreover, at SMARCA2 [2] (MV4-11 cells), the “SMARCA2 MSD MV411 degradation 24 h: average Dmax %” value is reported as “B (B (>70-90% degradation))” and the DC50 is less than 100 nM.

Take `Cc1ncsc1-c1cnc(CNC(=O)[C@@H]2C[C@@H](O)CN2C(=O)[C@@H](NC(=O)[C@H]2CC3(C2)C[C@H](N2CCC(c4ccc(N5C6CCC5CN(c5cc(-c7ccccc7O)nnc5N)C6)cc4)CC2)C3)C(C)(C)C)nc1` (stereo partly drawn) [I-25, (2S,4R)-1-((2S)-2-(6-(4-(4-(3-(3-amino-6-(2-hydroxyphenyl)pyridazin-4-yl)-3,8-diazabicyclo [3.2.1]octan-8-yl)phenyl)piperidin-1-yl)spiro[3.3]heptane-2-carboxamido)-3,3-dimethylbutanoyl)-4-hydroxy-N-((5-(4-methylthiazol-5-yl)pyrimidin-2-yl)methyl)pyrrolidine-2-carboxamide]: the Dmax at SMARCA2 [1], on SMARCA4 and on SMARCA2 [2] was less than 50% each time. In addition, the DC50 at SMARCA2 [1] (A549 cells), on SMARCA4 (MV4-11 cells) and on SMARCA2 [2] (MV4-11 cells) was more than 1000 nM each time.
